From patent US8008329B2 (Dong Wha Pharmaceutical Co., Ltd., priority 2008, dated 2011)
Marks after values point to notes of the source that are not given here.

Test system: osteoclast differentiation
Assay: Osteoclast differentiation in co-culture of mouse bone marrow cells and ST2 cells, TRAP staining (Examples 8-9)
Assay type: cell-based
Settings: for % number of osteoclast (vs. solvent control group): day 7; for activity at 0.1 µM: Mus musculus, Osteoclast, 168 h, day 7, read-out: % number of osteoclast (vs. solvent control group)
Procedure: The differentiation of osteoclast from mouse bone marrow cells was induced by using co-culture system, and inhibitory effect of the drug on osteoclast differentiation was evaluated by treatment of single or combination formulation. Co-culture was performed using mouse bone marrow cells and ST cells of bone marrow-derived stromal cell.
Femora and tibia were aseptically ectomized from 6˜8 week-old male ddY mice to harvest bone marrow cells by a general method using a syringe. The red blood cells were removed from the bone marrow cells, followed by centrifugation. The bone marrow cells were suspended in α-MEM medium supplemented with 10% fetal bovine serum, and the numbers of the eukaryotic cells in the harvested bone marrow cells were counted and then immediately used for a co-culture system.
ST2 cells (RIKEN Cell Bank, Tsukuba, Japan) were cultured in α-MEM medium supplemented with 10% fetal bovine serum until confluent. Then, these cells were diluted to a desired cell number, and used for the experiment.
The bone marrow cells (1×10^5 cells/well) and ST2 cells (3,000 cells/well) prepared in the above were plated in a 96-well plate using α-MEM medium supplemented with 10% fetal bovine serum. At this time, differentiation factors, 1α,25-dihydroxyvitamin D3 (10^−8 M, hereinbelow, referred to as vitamin D3) and dexamethasone (10^−8 M), were co-added to the medium to induce osteoclast differentiation. The medium was replaced with fresh media containing the differentiation factors every 2 to 3 days.
After 7 days, when multinucleated osteoclasts were observed, the medium was removed from the wells, and then the cells were fixed with PBS containing 10% Formalin. Tartrate-Resistant Acid Phosphatase (hereinbelow, referred to as TRAP) was used as a marker to measure the mature osteoclast in consideration of its characteristics showing a positive reaction to a TRAP staining solution. The TRAP staining solution was prepared in such the manner that a substrate, naphtol AS-MS phosphate and a coloring agent (Fast Red Violet LB salt) were dissolved in N,N-dimethylformamide. A 0.1 N NaHCO3 buffer solution containing 50 mM tartaric acid was added thereto, and the mixture was stored at a refrigerator prior to use as a staining solution. The osteoclasts with 6-7 or more nuclei showing a TRAP-positive reaction were counted under a microscope.
Alendronic acid was dissolved in distilled water at a concentration of 0.1 mM, and benzamidine derivatives were dissolved in DMSO at a concentration of 0.1 mM. All of them were diluted 1,000 fold with the differentiation media to a final concentration of 0.1 μM, respectively. In this connection, a control group was maintained in 0.1% DMSO.
As the above described, the sample substances and cells, which were diluted to the desired concentrations, were plated in 96-well plate, and co-cultured. On days 3 and 5 of culture, the media were replaced with fresh differentiation media containing the sample substances. On day 7 of culture, TRAP staining was performed to count the mature multinucleated osteoclast that was formed by differentiation. The mature osteoclasts with 6 or more nuclei were counted under a microscope. The results were expressed as a percentage (%) of the number of mature osteoclast observed in each experimental group, when the number of mature osteoclast in the control group (solvent only) was regarded as 100%. The experiment was performed with 4 wells per experimental group (n=4), and the results were expressed as mean value±standard deviation. In addition, the experiment was repeated at least two times, and Student t-test was applied for significant difference between experimental groups.
The experiment was performed in the same manner as in Example 8 to evaluate the effect of individual or combination treatment of risedronic acid and benzamidine derivatives of Formula 1 on osteoclast differentiation, except using 0.1 μM risedronic acid instead of 0.1 μM alendronic acid. […]

[1] = Combination treatment (alendronic acid + compounds), 0.1 μM each
[2] = Combination treatment (risedronic acid + compounds), 0.1 μM each
[3] = Individual treatment (compounds), 0.1 μM

| Compound | % number of osteoclast (vs. solvent control group) [1] | % number of osteoclast (vs. solvent control group) [2] | activity at 0.1 µM [3] [%] | % number of osteoclast (vs. solvent control group) [3] [%] |
| --- | --- | --- | --- | --- |
| CCCNc1nc(-c2ccc(OCCCCCOc3ccc(C(=N)NO)cc3)cc2)c(CC)s1 [Compound 98, N-hydroxy-4-{5-[4-(5-ethyl-2-propylamino-1,3-thiazol-4-yl)phenoxy]pentyloxy}-benzamidine] | 29 ± 1.6^ab % | 11 ± 3.2^ac % | 47 ± 3.2 |  |
| CCc1sc(NC(=O)c2ccncc2)nc1-c1ccc(OCCCCCOc2ccc(C(=N)NO)cc2)cc1 [Compound 100, N-hydroxy-4-{5-[4-(5-ethyl-2-(4-pyridylcarbonyl)amino-1,3-thiazol-4-yl)phenoxy]pentyloxy}-benzamidine] | 14 ± 6.9^ab % | 12 ± 3.0^ac % | 46 ± 8.4 |  |
| CCc1sc(NC(=O)c2cccnc2)nc1-c1ccc(OCCCCCOc2ccc(C(=N)NO)cc2)cc1 [Compound 101, N-hydroxy-4-{5-[4-(5-ethyl-2-(3-pyridylcarbonyl)amino-1,3-thiazol-4-yl)phenoxy]pentyloxy}-benzamidine] | 24 ± 3.2^ab % | 18 ± 2.8^ac % | 50 ± 5.9 |  |
| CCc1sc(NCCOC)nc1-c1ccc(OCCCCCOc2ccc(C(=N)NO)cc2)cc1 [Compound 102, N-hydroxy-4-{5-[4-(5-ethyl-2-(2-methoxyethyl)amino-1,3-thiazol-4-yl)phenoxy]pentyloxy}-benzamidine] | 37 ± 3.6^b % | 21 ± 2.6^ac % | 47 ± 4 |  |
| CCCCc1sc(NC)nc1-c1ccc(OCCCCCOc2ccc(C(=N)NO)cc2)cc1 [Compound 105, N-hydroxy-4-{5-[4-(5-butyl-2-methylamino-1,3-thiazol-4-yl)phenoxy]pentyloxy}-benzamidine] | 42 ± 3.0^b % | 41 ± 8.8^ac % | 87 ± 11 |  |
| CNc1nc(-c2ccc(OCCCCCOc3ccc(C(=N)NO)cc3)cc2)c(CC2CCCC2)s1 [Compound 109, N-hydroxy-4-{5-[4-(5-cyclopentylmethyl-2-methylamino-1,3-thiazol-4-yl)phenoxy]pentyloxy}-benzamidine] | 49 ± 9.8^b % | 30 ± 6.5^ac % | 60 ± 9.6 |  |
| CCCNc1nc(-c2ccc(OCCCCCOc3ccc(C(=N)NO)cc3)cc2)c(CC2CCCC2)s1 [Compound 111, N-hydroxy-4-{5-[4-(5-cyclopentylmethyl-2-propylamino-1,3-thiazol-4-yl)phenoxy]pentyloxy}-benzamidine] | 51 ± 6.0% | 32 ± 5.2^ac % | 76 ± 12.2 |  |
| N=C(NO)c1ccc(OCCCCCOc2ccc(-c3nc(NC(=O)c4ccncc4)sc3CC3CCCC3)cc2)cc1 [Compound 112, N-hydroxy-4-{5-[4-(5-cyclopentylmethyl-2-(4-pyridylcarbonyl)amino-1,3-thiazol-4-yl)phenoxy]pentyloxy}-benzamidine] | 35 ± 7.6^ab % | 31 ± 8.0^ac % | 77 ± 9.8 |  |
| CNc1nc(-c2ccc(OCCCCCOc3ccc(C(=N)NO)cc3)cc2)c(CCCl)s1 [Compound 115, N-hydroxy-4-{5-[4-(5-(2-chloroethyl)-2-methylamino-1,3-thiazol-4-yl)phenoxy]pentyloxy}-benzamidine] | 51 ± 8.9% | 45 ± 8.3^ac % | 77 ± 12.4 |  |
| Cc1sc(N(C)CCO)nc1-c1ccc(OCCCCCOc2ccc(C(=N)NO)cc2)cc1 [Compound 120] | 54 ± 2.4^ab % | 55 ± 9.1^ac % | 80 ± 6.5 |  |
| CCN(CCO)c1nc(-c2ccc(OCCCCCOc3ccc(C(=N)NO)cc3)cc2)c(C)s1 [Compound 121, N-hydroxy-4-[5-(4-{2-[ethyl-(2-hydroxyethyl) -amino]-5-methyl-1,3-thiazol-4-yl}phenoxy)pentyloxy]-benzamidine] | 55 ± 11.1^ab % | 39 ± 5.7^ac % | 95 ± 3.9 |  |
| COCCN(CCOC)c1nc(-c2ccc(OCCCCCOc3ccc(C(=N)NO)cc3)cc2)c(C)s1 [Compound 122, N-hydroxy-4-[5-(4-{2-[bis-(2-methoxyethyl) -amino]-5-methyl-1,3-thiazol-4-yl}phenoxy)pentyloxy]-benzamidine] | 37 ± 8.1^ab % | 49 ± 7.3^ac % | 71 ± 4.4 |  |
| CCN(CCN1CCOCC1)c1nc(-c2ccc(OCCCCCOc3ccc(C(=N)NO)cc3)cc2)c(C)s1 [Compound 124, N-hydroxy-4-[5-(4-{2-[ethyl-1-(2-morpholinoethyl)-amino]-5-methyl-1,3-thiazol-4-yl}phenoxy)pentyloxy]-benzamidine] | 21 ± 4.3^ab % | 17 ± 5.2^ac % |  | 49 ± 3.0 |
| Cc1sc(N(C)Cc2ccccc2)nc1-c1ccc(OCCCCCOc2ccc(C(=N)NO)cc2)cc1 [Compound 125, N-hydroxy-4-{5-(4-[2-(benzyl-methyl-amino)-5-methyl-1,3-thiazol-4-yl]phenoxy)pentyloxy}-benzamidine] | 43 ± 3.3^ab % | 21 ± 9.0^ac % | 66 ± 4.4 |  |
| CCN(Cc1ccccc1)c1nc(-c2ccc(OCCCCCOc3ccc(C(=N)NO)cc3)cc2)c(C)s1 [Compound 127, N-hydroxy-4-[5-{4-[2-(benzyl-ethyl-amino)-5-methyl-1,3-thiazol-4-yl]phenoxy}pentyloxy]-benzamidine] | 37 ± 6.8^ab % | 33 ± 7.3^ac % | 75 ± 14.3 |  |
| CCc1sc(N(CC)CCN2CCOCC2)nc1-c1ccc(OCCCCCOc2ccc(C(=N)NO)cc2)cc1 [Compound 132, N-hydroxy-4-[5-(4-{5-ethyl-2-[ethyl-(2-morpholinoethyl)-amino]-1,3-thiazol-4-yl}phenoxy)pentyloxy]-benzamidine] | 37 ± 8.3^ab % | 30 ± 3.4^ac % | 62 ± 7.7 |  |
| CCc1sc(N(C)Cc2ccccc2)nc1-c1ccc(OCCCCCOc2ccc(C(=N)NO)cc2)cc1 [Compound 133, N-hydroxy-4-[5-{4-[2-(benzyl-methyl-amino)-5-ethyl-1,3-thiazol-4-yl]phenoxy}pentyloxy]-benzamidine] | 42 ± 8.3^b % | 25 ± 5.7^ac % | 54 ± 8.3 |  |
